In EP0315782A2, “Method for the production of proteins” (priority 1987, dated 1989):
Like-named read-outs stand apart in the source and are kept apart here.

Tests used:
Format in all cases: cell-based, chinesische Hamster
CHO-Zellen [1] = test: t-PA production in transformed CHO cells, medium with 7.5% FKS, supernatant, direct chromogenic assay (DCA); details: for Stimulierung der t-PA-Produktion: after 24 h
From the text: (§1) Der Vektor für die t-PA-Produktion wurde in einem Subklon, CHO-K1-DUX B11, integriert (Urlaub et al., Proceedings of the National Academy of Science, USA, 77: 4216-4220, 1980). Diese Zell-Linie, eine Dihydrofolat Reduktase negative Mutante (DHFR-), ist für eine DHFR-abhängige Selektion der transfizierten Zellklone geeignet. Der Vektor für die humane c-DNA kann ein bekannter Plasmid-Vektor pBR-322 oder deren Abkömmling von Escherichia coli sein. Die Promotorregion für das in Frage kommende Gen und für das DHFR-Gen stammt aus SV 40 und die Terminationsregion für beide Gene von einem Hepatitis B-Oberflächenantigen. In den Beispielen wurden CHO-K1-DUX B11-Zellen, die durch die Plasmide pETPER oder pEPEFR transformiert sind, verwendet (siehe EP-A 0117059).
(§2) Die Zellkulturen werden bei 37°C in einem Hereaus-Brutschrank inkubiert und mit einem Kohlendioxid-Luftgemisch von 7,5% CO₂ in einer relativen Luftfeuchtigkeit von 100% belüftet. Je nach Verfahrensansatz werden unterschiedliche Kulturgefäße benutzt: Spinnergefäße für 100-1000 ml Medium, Roux-Schalen (Nunc) 175 cm² (70-100 ml Medium), 75 cm² (30-50 ml Medium), 25 cm² (7-10 ml Medium) und Mehrfachkulturschalen von Costar mit 2 cm² für 1 ml Kulturen. Für die Stammhaltung werden die Zellen in einer Dichte von 0,2-0,3 x 10⁶ Zellen/ml eingesetzt und alle 2-3 Tage subkloniert.
(§3) Die Protein-Produktion stimulierenden Substanzen können zu den verschiedenen Zeitpunkten jeweils in einer 1:100 Verdünnung zugegeben werden, d.h. sie wurden zuerst in Medium gelöst oder, wenn sie schwerlöslich sind, erst in Äthylalkohol gelöst und danach in Medium zugesetzt und dann das diese Substanz enthaltende Medium dem zellenthaltenden Medium im Verhältnis 1:100 v/v zugegeben.
(§4) In den folgenden Beispielen wurden, um die Stimulierung der t-PA-Synthese hervorzurufen, Zellen einer exponentiell wachsenden Kultur entnommen und in Plastikröhrchen (Falcon) 10 Min. bei 1000 x g in einer Beckmann T 3-6 Zentrifuge abzentrifugiert. Nach Dekantieren des Überstandes wurde das Zellpellet mit frischem Medium resuspendiert.
Für die Produktion von t-PA in serumhaltigem Medium wurde als frisches Medium F12/DMEM + 7,5% FKS + Gentamycin verwendet. Die resultierende Suspension kann in 2 cm² 24 Wells-Platten bei einer Zelldichte von 0,2-0,3 x 10⁶ Zellen/ml angesetzt werden.
(§5) Aliquots von Zellüberständen und Zellextrakten wurden zu verschiedenen Zeitpunkten abgenommen bzw. hergestellt. Die Messung der Proben erfolgte entweder sofort oder nach Aufbewahrung bei -20°C mit folgenden Methoden:
Von dem synthetischen Peptidsubstrat S-2288 (D-H-Ile-Pro-Arg-p-Nitroanilin) der Firma Kabi Diagnostica wird durch das t-PA p-Nitroanilin als Reaktionsprodukt gebildet. Die Aktivität von t-PA ist zur Bildung von p-Nitroanilin proportional, die bei […], 37°C, gemessen wird.
Die spektrophotometrische Bestimmung der Enzymkinetik wurde mit einem ACP-5010-Analysengerät der Firma Eppendorf automatisch durchgeführt.
Die Aktivität des Enzyms wurde anhand dieses vorgegebenen Standards berechnet. Eine t-PA-Standardreihe von 1-15 µg/ml wurde mit einem Laborstandard hergestellt, der zu 72% aus 1-kettigem Material besteht.
Die Substratlösung (100 mM Tris/106 mM NaCl) wurde in einer Konzentration von 50 mM eingesetzt.

CHO-Zellen [2] = test: t-PA production in transformed CHO cells, medium and determination method not stated; details: 10 mM; for activation at 10000 µM: CHO
From the text: as §1, §2, §3, §4
Aliquots von Zellüberständen und Zellextrakten wurden zu verschiedenen Zeitpunkten abgenommen bzw. hergestellt. Die Messung der Proben erfolgte entweder sofort oder nach Aufbewahrung bei -20°C mit folgenden Methoden: […]

CHO-Zellen [3] = test: t-PA production in transformed CHO cells, serum-free medium (DCA or determination method not given)
From the text: Diese Zell-Linie, eine Dihydrofolat Reduktase negative Mutante (DHFR-), ist für eine DHFR-abhängige Selektion der transfizierten Zellklone geeignet. […] Die Promotorregion für das in Frage kommende Gen und für das DHFR-Gen stammt aus SV 40 und die Terminationsregion für beide Gene von einem Hepatitis B-Oberflächenantigen.
Im folgenden Beispiel wird ein nachseziertes DMEM/Ham's F 12 Medium (1:1) (Gibco) als serumfreies Medium verwendet. Als Zusatz wird fötales Kälberserum (FKS) in einer Konzentration von 7,5% oder 1-2% verwendet.
as §2, §3, §4
Für die Produktion von t-PA in serumfreiem Medium wurden die Zellen zuvor 3-4 Tage in einem Medium von 1-2% FKS adaptiert, wieder abzentrifugiert und das Zellpellet in serumfreiem Medium resuspendiert und anschließend in 2 cm² 24 Wells-Platten in einer Zelldichte von 0,4-0,5 x 10⁶ Zellen/ml überführt.
as §5
Die Aktivität des Enzyms wurde anhand dieses vorgegebenen Standards berechnet.

[4] = Table 3, mean ± SE, n = 3-24, production runs of 3 to 4 days, acids added day 0 to 3, 1 ml supernatant vs control (0%), 7,5% FKS
[5] = Table 3, single sample, 1 ml supernatant vs control (0%), 7,5% FKS, its concentration, addition and sampling day in brackets in Tables 3/3A
[6] = Table 10, 7,5% FKS, bracketed value = concentration of the single sample
[7] = Table 10, mean ± SE, runs of 4 days, added day 1, sampled days 2-4, 7,5% FKS, 1 ml supernatant vs control (0%)
[8] = Table 10, single sample (added day 1, sampled day 4), 7,5% FKS, 1 ml supernatant vs control (0%)
[9] = Table 3, stimulation of t-PA synthesis, medium with 7,5% FKS, bracketed value = concentration of the single (maximum) sample
[10] = Table 4, Applikationstag 0, after 48 h growth, 7,5% FKS, 1 mM or 5 mM, 1 ml supernatant vs control (0%), mean ± SE
[11] = Table 4, Applikationstag 1, after 48 h growth, 7,5% FKS, 1 mM or 5 mM, 1 ml supernatant vs control (0%), mean ± SE
[12] = Table 7, mean ± SE, n = 4-9, runs of 4 days, acids added day 0, 7,5% FKS, 1 ml supernatant vs control (0%)
[13] = Table 7, single sample (added day 0, sampled day 2), 7,5% FKS, 1 ml supernatant vs control (0%)
[14] = Table 8, 7,5% FKS, bracketed value = concentration of the single sample
[15] = Table 8, mean ± SE, n = 6-19, runs of 3 days, added day 0 to 2, 7,5% FKS, 1 ml supernatant vs control (0%)
[16] = Table 8, single sample, 7,5% FKS, 1 ml supernatant vs control (0%)

For `O=CO` [Ameisensäure, reference compound], the “% Steigerung der t-PA-Synthese Durchschnitt” value (CHO-Zellen [1]; [4]) was 6,5 ± 0,9%, the “% Steigerung der t-PA-Synthese Maximum” value (CHO-Zellen [1]; [5]) was 7,4% and the “optimaler Dosisbereich” value (CHO-Zellen [1]; Table 3, stimulation of t-PA synthesis, medium with 7,5% FKS) was 100 µM.

In the case of `O=C1O[C@H]([C@@H](O)CO)C(O)=C1O` [Ascorbinsäure], the “Wirkung auf die t-PA-Produktion hält an” value (CHO-Zellen [2]; duration of effect) is reported as 72 h and the activation at 10000 µM (CHO-Zellen [2]; application day 0, after 24 h (Abb. 14), read-out: Steigerung der t-PA-Synthese) is reported as 15.2%.

For `CCCC(=O)OCC[N+](C)(C)C.[Br-]` [BCB, Butyrylcholinbromid], the “optimaler Dosisbereich” value (CHO-Zellen [1]; [6]) was 5-10 mM (2.5 mM), the “% Steigerung der t-PA-Synthese Durchschnitt” value (CHO-Zellen [1]; [7]) was 29,1 ± 4,4% and the “% Steigerung der t-PA-Synthese Maximum” value (CHO-Zellen [1]; [8]) was 49,6%.

For `CCCC(=O)OCC[N+](C)(C)C.[Cl-]` [BCC, Butyrylcholinchlorid], the “optimaler Dosisbereich” value (CHO-Zellen [1]; [6]) was 5-10 mM ( 10 mM), the “% Steigerung der t-PA-Synthese Durchschnitt” value (CHO-Zellen [1]; [7]) was 38,8 ± 4,4% and the “% Steigerung der t-PA-Synthese Maximum” value (CHO-Zellen [1]; [8]) was 63,9%.

`CCCC(=O)O` [Buttersäure] was tested, and the “% Steigerung der t-PA-Synthese Durchschnitt” value (CHO-Zellen [1]; [4]) was 41,9 ± 3,8%, the “% Steigerung der t-PA-Synthese Maximum” value (CHO-Zellen [1]; [5]) was 68,3% and the “optimaler Dosisbereich” value (CHO-Zellen [1]; [9]) was 1-5 mM ( 1 mM). The “Steigerung der t-PA-Produktion” value (CHO-Zellen [1]; [10]) was 33,0 ± 5,4%, the “Steigerung der t-PA-Produktion” value (CHO-Zellen [1]; [11]) was 40,2 ± 12,2% and the “Stimulierung der t-PA-Produktion” value (CHO-Zellen [1]; medium with 7,5% FKS (Abb. 7)) was 18,1 ± 5,7%. For the same compound, the “t-PA-Synthese, bezogen auf 1 x 10⁶ Zellen” value (CHO-Zellen [3]; serum-free medium (Abb. 13)) was over 50 µg/ 1 x 10⁶ Zellen.

`CC(=O)C=C(C)CC(C)(C)O` [DHO, 6-Hydroxy-4,6-Dimethyl-3-hepten-2-on] was tested, and the “t-PA Produktion nach der Behandlung” value (CHO-Zellen [3]; after 144 h) was “erhöht”.

`CCCCCc1oc(CCCCCCCCC(=O)O)c(C)c1C` [Furanfettsäure] was tested, and the “% Steigerung der t-Pa-Synthese Durchschnitt” value (CHO-Zellen [1]; [12]) was 19,0 ± 3,2% and the “% Steigerung der t-Pa-Synthese Maximum” value (CHO-Zellen [1]; [13]) was 32,1%.

`N[C@@H](CCC(=O)N[C@@H](CS)C(=O)NCC(=O)O)C(=O)O` [Glutathion] was tested, and the “optimaler Dosisbereich” value (CHO-Zellen [1]; [14]) was 1-10 µM (10µM), the “% Steigerung der t-Pa-Synthese Durchschnitt” value (CHO-Zellen [1]; [15]) was 16,0 ± 2,0% and the “% Steigerung der t-Pa-Synthese Maximum” value (CHO-Zellen [1]; [16]) was 30,6%. The “effektiver Konzentrationsbereich” value (CHO-Zellen [1]; text b134) was 1 to 10 µM.

In the case of `CC(C)C(=O)O` [Isobuttersäure], the “% Steigerung der t-PA-Synthese Durchschnitt” value (CHO-Zellen [1]; [4]) is reported as 16.6 ± 2,8%, the “% Steigerung der t-PA-Synthese Maximum” value (CHO-Zellen [1]; [5]) is reported as 32,9% and the “optimaler Dosisbereich” value (CHO-Zellen [1]; [9]) is reported as 0,6-10 mM (10 mM). For the same compound, the “Steigerung der t-PA-Produktion” value (CHO-Zellen [1]; [10]) was 20,1 ± 10,7%, the “Steigerung der t-PA-Produktion” value (CHO-Zellen [1]; [11]) was 25,3 ± 5,1% and the Produktionssteigerung erst nach (CHO-Zellen [1]; onset of the increase, medium with 7,5% FKS (Abb. 7)) was 48 h.

For `CC(C)CC(=O)O` [Isovaleriansäure], the “% Steigerung der t-PA-Synthese Durchschnitt” value (CHO-Zellen [1]; [4]) was 18,7 ± 2,4%, the “% Steigerung der t-PA-Synthese Maximum” value (CHO-Zellen [1]; [5]) was 39,3% and the “optimaler Dosisbereich” value (CHO-Zellen [1]; [9]) was 1-20 mM ( 5 mM). For the same compound, the “Steigerung der t-PA-Produktion” value (CHO-Zellen [1]; [10]) was 17,2 ± 1,0%, the “Steigerung der t-PA-Produktion” value (CHO-Zellen [1]; [11]) was 19,4 ± 1,5% and the “Stimulierung der t-PA-Produktion” value (CHO-Zellen [1]; medium with 7,5% FKS (Abb. 7)) was 24,8 ± 0,5%. For the same compound, the “Steigerung der t-PA-Produktion” value (CHO-Zellen [1]; day 4, medium with 7,5% FKS (Abb. 7)) was 8,5%.

`N[C@@H](CS)C(=O)O` [L-Cystein] was tested, and the “optimaler Dosisbereich” value (CHO-Zellen [1]; [14]) was 1-10 mM ( 1mM), the “% Steigerung der t-Pa-Synthese Durchschnitt” value (CHO-Zellen [1]; [15]) was 20,9 ± 3,4% and the “% Steigerung der t-Pa-Synthese Maximum” value (CHO-Zellen [1]; [16]) was 41,4%. For the same compound, the “Maximalwert des Steigerungseffektes erreicht nach” value (CHO-Zellen [1]; time to maximal effect (Abb. 15)) was 48 h.

With `CC(O)CC1CCC(C(C)C(=O)O)O1` (stereo not drawn) [Nonactinsäure] the “% Steigerung der t-Pa-Synthese Durchschnitt” value (CHO-Zellen [1]; [12]) was 30,3 ± 6,5% and the “% Steigerung der t-Pa-Synthese Maximum” value (CHO-Zellen [1]; [13]) was 58,3%.

`O=C(O)CSCC(=O)O` [Thiodiglykolsäure] was tested, and the “% Steigerung der t-Pa-Synthese Durchschnitt” value (CHO-Zellen [1]) was 18,0 ± 3,8%, the “% Steigerung der t-Pa-Synthese Maximum” value (CHO-Zellen [1]) was 31,0% and the “optimaler Dosisbereich” value (CHO-Zellen [1]) was 1000 µM.

`O=C(O)C(O)C(O)C(=O)O` (stereo not drawn) [Weinsäure] gave an activation at 10000 µM (CHO-Zellen [2]; read-out: Steigerung der t-PA-Synthese gegenüber der Kontrolle) of 10.3%.
